From the supplement of paper PMC10307832

How the values were obtained:
Experiment in all cases: relative viability (nuclei count vs DMSO), 5 days (fraction); higher = more cells survive
QS11 + Decitabine = compound: C1CC2=C(C1)C=C(C=C2)OC3=NC(=C4C(=N3)N(C=N4)CC5=CC=C(C=C5)C6=CC=CC=C6)N[C@@H](CC7=CC=CC=C7)CO [QS11] + Nc1ncn([C@H]2C[C@H](O)[C@@H](CO)O2)c(=O)n1 [Decitabine] (partner 2 µM)
Outline: (§1)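 Lung cancer cell lines were pin-tool dosed in 1536-well plates on the day after seeding, with either a lone drug or a fixed anchor-drug dose plus five library-drug doses (not always all listed) in √10 steps. Nuclei were counted on 4× images after 5 days. Relative viability is the ratio of treated-well to vehicle-well nuclei counts, with each value a median of duplicate plates.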

QS11 + Pictilisib = compound: C1CC2=C(C1)C=C(C=C2)OC3=NC(=C4C(=N3)N(C=N4)CC5=CC=C(C=C5)C6=CC=CC=C6)N[C@@H](CC7=CC=CC=C7)CO [QS11] + CS(=O)(=O)N1CCN(Cc2cc3nc(-c4cccc5[nH]ncc45)nc(N4CCOCC4)c3s2)CC1 [Pictilisib] (partner 1 µM)
Outline: as §1

AZ628 + Pictilisib = compound: CC1=C(C=C(C=C1)NC(=O)C2=CC(=CC=C2)C(C)(C)C#N)NC3=CC4=C(C=C3)N=CN(C4=O)C [AZ628] + CS(=O)(=O)N1CCN(Cc2cc3nc(-c4cccc5[nH]ncc45)nc(N4CCOCC4)c3s2)CC1 [Pictilisib] (partner 1 µM)
Outline: as §1

[1] = compound: C[As](C)SC[C@H](NC(=O)CC[C@H](N)C(=O)O)C(=O)NCC(=O)O [Darinaparsin] + CS(=O)(=O)N1CCN(Cc2cc3nc(-c4cccc5[nH]ncc45)nc(N4CCOCC4)c3s2)CC1 [Pictilisib] (partner 1 µM)
Outline: as §1

Row | Cell Line | relative viability (QS11 + Decitabine; first compound 0.08 µM) | relative viability (QS11 + Decitabine; first compound 0.253 µM) | relative viability (QS11 + Decitabine; first compound 0.8 µM) | relative viability (QS11 + Decitabine; first compound 2.53 µM) | relative viability (QS11 + Decitabine; first compound 8 µM) | relative viability (QS11 + Pictilisib; first compound 0.08 µM) | relative viability (QS11 + Pictilisib; first compound 0.253 µM) | relative viability (QS11 + Pictilisib; first compound 0.8 µM) | relative viability (QS11 + Pictilisib; first compound 2.53 µM) | relative viability (QS11 + Pictilisib; first compound 8 µM) | relative viability (AZ628 + Pictilisib; first compound 0.08 µM) | relative viability (AZ628 + Pictilisib; first compound 0.253 µM) | relative viability (AZ628 + Pictilisib; first compound 0.8 µM) | relative viability (AZ628 + Pictilisib; first compound 2.53 µM) | relative viability (AZ628 + Pictilisib; first compound 8 µM) | relative viability ([1]; first compound 0.08 µM) | relative viability ([1]; first compound 0.8 µM) | relative viability ([1]; first compound 2.53 µM) | relative viability ([1]; first compound 8 µM)
1 | RERF-LC-KJ | 0.765 | 0.691 | 0.619 | 0.692 | 0.524 | 0.628 | 0.563 | 0.506 | 0.517 | 0.497 | 0.573 | 0.633 | 0.612 | 0.513 | 0.487 | 0.576 | 0.571 | 0.522 | 0.44
2 | NCI-H2087 | 0.287 | 0.325 | 0.252 | 0.305 | 0.299 | 0.799 | 0.836 | 0.926 | 1.03 | 1.13 | 0.617 | 0.35 | 0.325 | 0.341 | 0.291 | 1.06 | 0.881 | 0.652 | 0.997
3 | LOU-NH91 | 0.807 | 0.8 | 0.776 | 0.852 | 0.821 | 0.541 | 0.484 | – | 0.494 | 0.54 | 0.582 | 0.491 | 0.492 | 0.501 | 0.452 | 0.535 | 0.492 | 0.553 | 0.56
4 | 201T | 0.8 | 0.907 | 0.74 | 0.901 | 0.694 | 0.669 | 0.599 | 0.634 | 0.672 | 0.611 | 0.688 | 0.659 | 0.691 | 0.71 | 0.723 | 0.757 | 0.622 | 0.623 | 0.767
5 | UMC-11 | 0.318 | 0.482 | 0.604 | 0.543 | 0.651 | 0.748 | 0.844 | 0.899 | 0.901 | 1.12 | 0.976 | 0.805 | 0.845 | 0.752 | 0.76 | 0.897 | 0.821 | 0.75 | 0.915
6 | NCI-H1975 | 0.369 | 0.358 | 0.397 | 0.376 | 0.358 | 0.289 | 0.234 | 0.327 | 0.364 | 0.478 | 0.309 | 0.285 | 0.29 | 0.277 | 0.206 | 0.289 | 0.299 | 0.289 | 0.28
7 | NCI-H1395 | 0.699 | 0.791 | 0.71 | 0.789 | 0.801 | – | 0.614 | 0.772 | 0.645 | 0.619 | 0.645 | 0.621 | 0.618 | 0.629 | 0.662 | 0.538 | 0.617 | 0.619 | 0.568
8 | SW 1573 | 0.548 | 0.612 | 0.558 | 0.475 | 0.388 | 0.53 | 0.481 | 0.425 | 0.311 | 0.298 | 0.44 | 0.34 | 0.367 | 0.335 | 0.27 | 0.621 | 0.545 | 0.49 | 0.495
9 | NCI-H1792 | – | 0.536 | 0.518 | 0.498 | 0.58 | – | 0.238 | 0.289 | 0.235 | 0.307 | 0.251 | 0.296 | 0.212 | 0.223 | 0.149 | 0.169 | 0.235 | 0.243 | 0.356
10 | NCI-H441 | 0.236 | 0.215 | 0.254 | 0.234 | 0.225 | 0.472 | 0.529 | 0.501 | 0.5 | 0.608 | 0.417 | 0.45 | 0.444 | 0.403 | 0.283 | 0.566 | 0.498 | 0.424 | 0.548
11 | HCC-366 | 0.346 | 0.329 | – | 0.369 | 0.192 | 0.138 | 0.133 | – | 0.202 | 0.0869 | 0.15 | 0.18 | 0.0993 | 0.126 | 0.0787 | 0.108 | 0.13 | 0.158 | 0.162
12 | NCI-H1915 | 0.248 | 0.266 | – | 0.267 | 0.287 | 0.958 | 0.932 | – | 0.896 | 0.937 | 0.822 | 0.67 | 0.693 | 0.493 | 0.313 | 0.99 | 0.902 | 0.955 | 0.991
